Experimental data as given in patent US10010623B2, “Lysosome-cleavable linker” (UCL Business PLC, priority 2012, dated 2018).

- melting point: 107 to 110 °C
SMILES: O=C1OC(=O)C(Br)=C1Br [compound 1, 2,3-dibromo-maleic anhydride]
